According to PubChem BioAssay AID1963840 (Molecular Pharmacology Branch, DTP, NCI, 2024):

Tested on: 695427-040-R-J1-PDC complex spheroid viability
Experiment: Anticancer human tumor 695427-040-R-J1-PDC patient-derived colon adenocarcinoma cell line growth inhibition [POLQ]
Conditions: for IC50: curve of first compound; for viability, T/C: stronger effect = lower value
Procedure: Multicellular complex tumor spheroid response to Polymerase (POL) inhibitors (novobiocin, ART-558, RP6685) in combination with a variety of drugs and investigational agents in selected tumor cell lines
The POL inhibitors (novobiocin, ART-558, and RP6685) were evaluated both individually and in combination with standard of care and investigational anticancer small molecules within a complex spheroid model of solid tumors. . Complex spheroids include a stromal component modeled by human endothelial cells (HUVEC) and fibroblasts modeled by human mesenchymal stem cells (MSCs). The concentration ranges selected for each drug and investigational agent were based upon clinically achievable concentrations if the clinical Cmax of the agent was known.
Compounds. The drugs and investigational agents: novobiocin (NSC847541), ART-558 (NSC835418), RP-6685 (NSC848927), peposertib (NSC802822), ceralasertib (NSC780249), elimusertib (NSC800525), camonsertib (NSC841442), AZD-1390 (NSC803789), olaparib (NSC753686), talazoparib (NSC767125), rucaparib (NSC756644), sotorasib (NSC818433), MRTX-1133 (NSC836407), SN-38 (NSC673596), topotecan (NSC609699), epotoside (NSC141540), doxorubicin (NSC123127), gemcitabine (NSC613327), 5-fluorouracil (NSC19893), paclitaxel (NSC125973), vemurafenib (NSC761431), MSA-2 (NSC828583), SN-011 (NSC837082), adavosertib (NSC754352), prexasertib (NSC758257), carboplatin (NSC241240) and oxaliplatin (NSC266046), were obtained from the National Cancer Institute (NCI) Developmental Therapeutics Program Chemical Repository (21). The FDA-approved anticancer drug set is available from the Developmental Therapeutics Program at https://dtp.cancer.gov/organization/dscb/obtaining/. […] The stock solutions were prepared in dimethyl sulfoxide (DMSO, Sigma-Aldrich, St. Louis, MO, cat. D2650), except for the platinum compounds which were prepared in saline (Quality Biological, Gaithersburg, MD, cat. 114-055-101), at 800-fold the tested concentration and stored at -70 degrees C prior to their use. All drugs and investigational agents were tested over a range starting from a high concentration at or near the clinical Cmax and decreasing in half-log increments. If the clinical Cmax for an agent had not been determined, the highest concentration tested was 10 microM, except for SN-38, which was tested at a high concentration of 1 microM.
Cell Culture. All cells were maintained in an incubator at 37 degrees C and 5% CO2 with 95% humidity. The PDC lines were cultured according to standard operating procedures established by the NCI PDMR (https://pdmr.cancer.gov). Table 3 of the manuscript, lists the cell lines along with the number of the three cell types plated to form the mct-spheroids and media for tumor cell growth. After thawing, all PDC lines, except 997537-175-T-J1-PDC and 415267-285-R-J2-PDC, were cultured in Matrigel-coated flasks prepared with a working solution of 1X Ham's F-12 nutrient mix, without supplementation (Thermo Fisher Scientific, cat. 11765054), 100 U/mL penicillin-streptomycin (Thermo Fisher Scientific, cat. 15140122), and 2.5% Matrigel (Corning Inc., Corning, NY, cat. 354248) for the first three passages. The two PDC lines 997537-175-T-J1-PDC and 415267-285-R-J2-PDC were cultured on uncoated flasks. The 857933-349-R-J2-PDC line was cultured in 6C/Colon 1B media containing advanced DMEM/F-12 (Thermo Fisher Scientific, cat. 12634028), 10 mM HEPES (Thermo Fisher Scientific, cat. 15630080), 1X GlutaMAX supplement (Thermo Fisher Scientific, cat. 35050061), 0.1 mg/mL primocin (InvivoGen, San Diego, CA, cat. ant-pm-2), 10% defined fetal bovine serum, heat inactivated (HyClone Laboratories Inc., Logan, UT, cat. SH30070.03HI), 50% L-WRN conditioned media (ATCC, cat. CRL-3276), 1.25 mM N-Acetyl-L-cysteine (Sigma-Aldrich, cat. A9165), 10 mM nicotinamide (Sigma-Aldrich, cat. N0636), 1X B-27 supplement (Thermo Fisher Scientific, cat. 17504044), 1X N-2 supplement (Thermo Fisher Scientific, cat. […]

[1] = second compound 0.0316 µM, first compound 0.00316 µM
[2] = second compound 0.0316 µM, first compound 0.01 µM
[3] = second compound 0.0316 µM, first compound 0.0316 µM
[4] = second compound 0.0316 µM, first compound 0.1 µM
[5] = second compound 0.1 µM, first compound 0.00316 µM
[6] = second compound 0.1 µM, first compound 0.01 µM
[7] = second compound 0.1 µM, first compound 0.0316 µM
[8] = second compound 0.1 µM, first compound 0.1 µM
[9] = second compound 0.316 µM, first compound 0.00316 µM
[10] = second compound 0.316 µM, first compound 0.01 µM
[11] = second compound 0.316 µM, first compound 0.0316 µM
[12] = second compound 0.316 µM, first compound 0.1 µM
[13] = second compound 1 µM, first compound 0.00316 µM
[14] = second compound 1 µM, first compound 0.01 µM
[15] = second compound 1 µM, first compound 0.0316 µM
[16] = second compound 1 µM, first compound 0.1 µM
[17] = second compound 3.16 µM, first compound 0.00316 µM
[18] = second compound 3.16 µM, first compound 0.01 µM
[19] = second compound 3.16 µM, first compound 0.0316 µM
[20] = second compound 3.16 µM, first compound 0.1 µM
[21] = second compound 10 µM, first compound 0.00316 µM
[22] = second compound 10 µM, first compound 0.01 µM
[23] = second compound 10 µM, first compound 0.0316 µM
[24] = second compound 10 µM, first compound 0.1 µM
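Also: spheroids exposed to compounds for seven days.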
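For viability, T/C in this document: 100% = DMSO vehicle control viability.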

CC[C@@]1(O)C(=O)OCc2c1cc1n(c2=O)Cc2cc3c(CN(C)C)c(O)ccc3nc2-1 + COC1C(OC(N)=O)C(O)C(Oc2ccc3c(O)c(NC(=O)c4ccc(O)c(CC=C(C)C)c4)c(=O)oc3c2C)OC1(C)C
IC50 (second compound 0.0316 µM): > 100 nM
IC50 (second compound 0.1 µM): > 100 nM
IC50 (second compound 0.316 µM): > 100 nM
IC50 (second compound 1 µM): > 100 nM
IC50 (second compound 3.16 µM): > 100 nM
IC50 (second compound 10 µM): > 100 nM
viability, T/C (second compound 0.0316 µM, first compound 0.000316 µM): 103%
viability, T/C (second compound 0.0316 µM, first compound 0.001 µM): 96.8%
viability, T/C [1]: 97.8%
viability, T/C [2]: 103%
viability, T/C [3]: 100%
viability, T/C [4]: 95.1%
viability, T/C (second compound 0.1 µM, first compound 0.000316 µM): 116%
viability, T/C (second compound 0.1 µM, first compound 0.001 µM): 104%
viability, T/C [5]: 101%
viability, T/C [6]: 102%
viability, T/C [7]: 104%
viability, T/C [8]: 99.5%
viability, T/C (second compound 0.316 µM, first compound 0.000316 µM): 102%
viability, T/C (second compound 0.316 µM, first compound 0.001 µM): 102%
viability, T/C [9]: 106%
viability, T/C [10]: 104%
viability, T/C [11]: 105%
viability, T/C [12]: 92.4%
viability, T/C (second compound 1 µM, first compound 0.000316 µM): 108%
viability, T/C (second compound 1 µM, first compound 0.001 µM): 102%
viability, T/C [13]: 99.6%
viability, T/C [14]: 98.1%
viability, T/C [15]: 106%
viability, T/C [16]: 93.1%
viability, T/C (second compound 3.16 µM, first compound 0.000316 µM): 97.2%
viability, T/C (second compound 3.16 µM, first compound 0.001 µM): 101%
viability, T/C [17]: 103%
viability, T/C [18]: 97.2%
viability, T/C [19]: 105%
viability, T/C [20]: 86%
viability, T/C (second compound 10 µM, first compound 0.000316 µM): 107%
viability, T/C (second compound 10 µM, first compound 0.001 µM): 103%
viability, T/C [21]: 105%
viability, T/C [22]: 106%
viability, T/C [23]: 105%
viability, T/C [24]: 93%

CCc1c2c(nc3ccc(O)cc13)-c1cc3c(c(=O)n1C2)COC(=O)[C@]3(O)CC + COC1C(OC(N)=O)C(O)C(Oc2ccc3c(O)c(NC(=O)c4ccc(O)c(CC=C(C)C)c4)c(=O)oc3c2C)OC1(C)C
IC50 (second compound 0.0316 µM): 976 nM
IC50 (second compound 0.1 µM): 893 nM
IC50 (second compound 0.316 µM): > 1000 nM
IC50 (second compound 1 µM): 985 nM
IC50 (second compound 3.16 µM): 809 nM
IC50 (second compound 10 µM): 656 nM
viability, T/C [1]: 97.5%
viability, T/C [2]: 89%
viability, T/C [3]: 82.6%
viability, T/C [4]: 78.9%
viability, T/C (second compound 0.0316 µM, first compound 0.316 µM): 68.2%
viability, T/C (second compound 0.0316 µM, first compound 1 µM): 48.1%
viability, T/C [5]: 102%
viability, T/C [6]: 91.4%
viability, T/C [7]: 86.9%
viability, T/C [8]: 78.4%
viability, T/C (second compound 0.1 µM, first compound 0.316 µM): 68.4%
viability, T/C (second compound 0.1 µM, first compound 1 µM): 46.9%
viability, T/C [9]: 107%
viability, T/C [10]: 94.4%
viability, T/C [11]: 78.8%
viability, T/C [12]: 78.3%
viability, T/C (second compound 0.316 µM, first compound 0.316 µM): 68.8%
viability, T/C (second compound 0.316 µM, first compound 1 µM): 50.5%
viability, T/C [13]: 97.3%
viability, T/C [14]: 97.5%
viability, T/C [15]: 81.7%
viability, T/C [16]: 78.9%
viability, T/C (second compound 1 µM, first compound 0.316 µM): 69.1%
viability, T/C (second compound 1 µM, first compound 1 µM): 48.4%
viability, T/C [17]: 97%
viability, T/C [18]: 90.9%
viability, T/C [19]: 87.7%
viability, T/C [20]: 75.8%
viability, T/C (second compound 3.16 µM, first compound 0.316 µM): 63.2%
viability, T/C (second compound 3.16 µM, first compound 1 µM): 47%
viability, T/C [21]: 98.7%
viability, T/C [22]: 84.6%
viability, T/C [23]: 85.7%
viability, T/C [24]: 74.5%
viability, T/C (second compound 10 µM, first compound 0.316 µM): 64.2%
viability, T/C (second compound 10 µM, first compound 1 µM): 42%
